US20120016009A1, “Optimized Methods For Delivery Of DSRNA Targeting The PCSK9 Gene” (priority 2008, published 2012)
In the oligonucleotide strings, read from the 5' end, every base follows the letter of its sugar. An asterisk marks phosphorothioate; unmarked linkages are phosphodiester. Other units and linkages are bracketed, terminal groups are in braces. A string of capitals states the bases alone. d = 2'-deoxy (DNA); m = 2'-O-methyl; r = 2'-OH (RNA)

Test system: PCSK9 mRNA
Experiment: PCSK9 siRNA screening in HepG2 cells (lipofectamine 2000 transfection, PCSK9 mRNA by Quantigene, normalized to GAP-DH)
Format: cell-based, human
Conditions: for Mean percent remaining mRNA transcript at siRNA concentration/in cell type 30 nM/HepG2: 30 nM siRNA; for Mean percent remaining mRNA transcript at siRNA concentration/in cell type 3 nM/HepG2: 3 nM siRNA
Method in brief: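 HepG2 cells, grown in MEM with 10% fetal calf serum, antibiotics, non-essential amino acids and sodium pyruvate at 37° C. and 5% CO2, were plated at 2.0×10^4 cells/well in 96-well plates and transfected directly with siRNA using lipofectamine 2000. After 24 hours, cells were lysed and PCSK9 mRNA was measured by Quantigene and normalized to GAP-DH mRNA.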

Substance	Mean percent remaining mRNA transcript at siRNA concentration/in cell type 30 nM/HepG2	IC50	Mean percent remaining mRNA transcript at siRNA concentration/in cell type 3 nM/HepG2
AD-9728: PCSK9 siRNA (sense mCrArGmCrGrGmCmCrGrGrGrAmUrGmCmCrGrGmCdT*dT; antisense rGrCrCrGrGmCrArUrCrCrCrGrGrCrCrGrCrUrGdT*dT)	94%		
AD-9729: PCSK9 siRNA (sense mUmUmUmCmUrGrGrAmUrGrGmCrAmUmCmUrArGmCdT*dT; antisense rGrCmUrArGrArUrGrCmCrArUrCmCrArGrArArAdT*dT)	56%		
AD-9730: PCSK9 siRNA (sense mCmUmCrArGmCmCrArAmCmCmCrGmCmUmCmCrAmCdT*dT; antisense rGrUrGrGrArGrCrGrGrGrUrUrGrGrCrUrGrArGdT*dT)	85%		
AD-9731: PCSK9 siRNA (sense mUrGrGmUrGrArArGrAmUrGrArGmUrGrGmCrGrAdT*dT; antisense rUrCrGrCmCrArCrUmCrArUrCrUrUmCrArCmCrAdT*dT)	31%	320 pM	31%
AD-9732: PCSK9 siRNA (sense mUmCrGmUrGmCmUrGrGmUmCrAmCmCrGmCmUrGmCdT*dT; antisense rGmCrArGrCrGrGrUrGrArCmCrArGmCrArCrGrAdT*dT)	105%		
AD-9733: PCSK9 siRNA (sense rGrGrArGmCmUrGrGmUrGmCmUrArGmCmCmUmUrGdT*dT; antisense mCrArArGrGrCmUrArGmCrArCmCrArGrCrUrCrCdT*dT)	78%		73%
AD-9734: PCSK9 siRNA (sense mUrGmCmUrArGmCmCmUmUrGmCrGmUmUmCmCrGrAdT*dT; antisense rUrCrGrGrArArCrGmCrArArGrGrCmUrArGmCrAdT*dT)	91%		
AD-9735: PCSK9 siRNA (sense mCrAmCrGrGmUrAmCmCrGrGrGmCrGrGrAmUrGrAdT*dT; antisense rUmCrArUrCrCrGrCrCrCrGrGmUrArCrCrGrUrGdT*dT)	115%		
AD-9737: PCSK9 siRNA (sense mUmCmCmUrArGrAmCrAmCmCrArGmCrAmUrAmCrAdT*dT; antisense rUrGmUrArUrGrCrUrGrGrUrGrUrCmUrArGrGrAdT*dT)	68%		
AD-9738: PCSK9 siRNA (sense rAmCmCrAmCmCrGrGrGrArArAmUmCrGrArGrGrGdT*dT; antisense rCrCrCrUrCrGrArUrUrUrCrCrCrGrGrUrGrGrUdT*dT)	83%		
AD-9739: PCSK9 siRNA (sense mCrGrArGrGrGmCrArGrGrGmUmCrAmUrGrGmUmCdT*dT; antisense rGrArCmCrArUrGrArCrCrCrUrGrCrCrCrUrCrGdT*dT)	109%		
AD-9740: PCSK9 siRNA (sense rGrGmCrArAmCmUmUmCmCrGrGrGrAmCrGrAmUrGdT*dT; antisense mCrArUrCrGrUrCrCrCrGrGrArArGrUrUrGrCrCdT*dT)	198%		
AD-9741: PCSK9 siRNA (sense mUmUmCmCrGrGrGrAmCrGrAmUrGmCmCmUrGmCmCdT*dT; antisense rGrGmCrArGrGmCrArUrCrGrUrCrCrCrGrGrArAdT*dT)	130%		
AD-9742: PCSK9 siRNA (sense rArGmCrAmCmCmUrGmCmUmUmUrGmUrGmUmCrAmCdT*dT; antisense rGrUrGrAmCrAmCrArArArGmCrArGrGrUrGrCrUdT*dT)	127%		
